Source: patent US9617221B2, “Kinase modulators for the treatment of cancer” (Synovo GmbH, priority 2010, dated 2017)

Assays:
[1] = tested on: IL-10; experiment: IL-10 production by LPS-stimulated murine peritoneal macrophage (ELISA); type: cell-based, mice; details: murine peritoneal macrophage
Experimental: (§1) Peritoneal macrophage or splenocytes (lymphocytes and macrophage) were harvested from donor mice using standard techniques. Cells were placed in culture and stimulated with either LPS (10 μg/mL) or concanavalin A 5 μg/mL (Sigma Chemical Co., St Louis, Mo.) in RPMI-1640 medium supplemented with antibiotics, […] 2-mercaptoethanol, 10 mm HEPES buffer and 10% fetal calf serum (FCS) (see Holan et al., 1985) to stimulate macrophage and T-cells respectively. Compounds were added from DMSO stock solutions to a final concentration of 50 μM or less with DMSO not exceeding 1% of total volume. After 72 h, cell supernatant was recovered and the cytokine levels were estimated by ELISA. The effect of compounds on cytokine production was recorded as follows: […]

[2] = tested on: IL-1β; experiment: IL-1β production by LPS-stimulated macrophages; type: cell-based, mice; details: 5 μM, 72 h
Experimental: as §1

[3] = tested on: IL-4; experiment: IL-4 production, Con A, spleen; type: cell-based, mice; details: 5 μM, 72 h
Experimental: as §1

[4] = tested on: T cells; experiment: Proliferation of Con A-stimulated T cells; type: cell-based, mice; details: 10 μM
Experimental: as §1

[5] = tested on: B cells; experiment: Proliferation of LPS-stimulated B cells; type: cell-based, mice; details: 10 μM
[6] = tested on: IFNg; experiment: IFNg gene expression in murine pancreatic cancer tumours (real time PCR); type: in vivo, mice; details: tumour mRNA; daily i.p. 10 μmol/kg; vehicle 1.0
Experimental: (§2) For treatment of pancreatic cancer, mice susceptible to pancreatic cancer were observed until cancer was apparent. Thereafter, animals were classified by ultrasound to a group of similar tumour size and were allocated to treatments: Vehicle, Gemcitabine 100 mg/kg every 5th day, or Gemcitabine plus the IL-10 inhibitor 43j ([…] i.p.), or the IL-12 stimulant 49 (10 μmol/kg/day i.p.) or all three combined at the doses specified.
(§3) Murine pancreatic cancer was induced as in Example 61. Mice carrying tumours were selected when the tumour was first detectable by ultrasound and the animals allocated to groups treated with either Vehicle, 49 alone or 43J alone or the combination of 49 and 43j. Compounds were supplied daily i.p. at 10 μmol/kg. Gene expression as determined by mRNA levels is determined by real time PCR methods using reverse transcribed templates.

[7] = tested on: IL-10; experiment: IL-10 gene expression in murine pancreatic cancer tumours (real time PCR); type: in vivo, mice; details: tumour mRNA; daily i.p. 10 μmol/kg; vehicle 21.4
Experimental: as §2, §3

[8] = tested on: IL-12; experiment: IL-12 gene expression in murine pancreatic cancer tumours (real time PCR); type: in vivo, mice; details: tumour mRNA; daily i.p. 10 μmol/kg; vehicle 3.1
Experimental: as §2, §3

[9] = tested on: IL-23; experiment: IL-23 gene expression in murine pancreatic cancer tumours (real time PCR); type: in vivo, mice; details: tumour mRNA; daily i.p. 10 μmol/kg; vehicle 15.2
Experimental: as §2, §3

[10] = tested on: IL-17; experiment: IL-17 gene expression in murine pancreatic cancer tumours (real time PCR); type: in vivo, mice; details: tumour mRNA; daily i.p. 10 μmol/kg; vehicle 17.8
Experimental: as §2, §3

[11] = tested on: IL-6; experiment: IL-6 gene expression in murine pancreatic cancer tumours (real time PCR); type: in vivo, mice; details: tumour mRNA; daily i.p. 10 μmol/kg; vehicle 22.5
Experimental: as §2, §3

[12] = tested on: TNFa; experiment: TNFa gene expression in murine pancreatic cancer tumours (real time PCR); type: in vivo, mice; details: tumour mRNA; daily i.p. 10 μmol/kg; vehicle 15.2
Experimental: as §2, §3

[13] = tested on: IL-10; experiment: IL-10 production by bone marrow derived macrophage or tumour associated macrophage; type: cell-based, C57BL/6 mice; details: 1 or 10 μM; stimulant such as LPS or TNFa or tumour conditioned medium
Experimental: (§4) A similar experiment can be performed using Bone marrow derived macrophage or Tumour associated macrophage (TAM): Mouse macrophages were derived from the bone marrow of WT, C57BL/6 mice and cultured for 7 d in DMEM medium supplemented with 10 ng/ml recombinant mouse M-CSF (R & D Systems). TAMs were isolated from the peritoneal cavity of mice in which IDB ovarian cancers had been growing i.p. for up to 10 wk. The macrophage are then treated with the compound to test at 1 or 10 μM in the presence of a stimulant such as LPS or TNFa or tumour conditioned medium.

[14] = tested on: IL-12; experiment: IL-12 production by bone marrow derived macrophage or tumour associated macrophage; type: cell-based, C57BL/6 mice; details: 1 or 10 μM; stimulant such as LPS or TNFa or tumour conditioned medium
Experimental: as §4

[15] = tested on: pancreatic cancer; experiment: Survival of mice with pancreatic cancer; type: in vivo; details: Gemcitabine 100 mg/kg every 5th day; 43j 10 mmol/kg/d i.p.; 49 10 μmol/kg/day i.p.
Experimental: as §2

[16] = tested on: Lewis Lung Carcinoma Cells (LLC); experiment: Subcutaneous Lewis Lung Carcinoma tumour growth; type: in vivo, C57BLK6 mice; details: 12.5 mg/kg p.o. once daily
Experimental: Lewis Lung Carcinoma Cells (LLC) are cultured by incubation in a medium which is RPMI 1640 (50%) and DMEM (50%) with a final concentration or fetal calf serum of 10%. After culture to the log phase, 10^5 cells are injected subcutaneously in […] mice. Mice are treated with substance either orally or via intraperitoneal injection.

CC[C@H]1OC(=O)[C@H](C)[C@@H](O[C@H]2C[C@@](C)(OC)[C@@H](O)[C@H](C)O2)[C@H](C)[C@@H](O[C@@H]2O[C@H](C)C[C@H](N(C)CCCC(=O)OCC(O)CSc3nc(-c4ccc(F)cc4)c(-c4ccncc4)[nH]3)[C@H]2O)[C@](C)(O)C[C@@H](C)CN(C)[C@H](C)[C@@H](O)[C@]1(C)O (some centres unmarked) [Compound 43g]
IL-10 by ELISA, % of solvent treated control ([1]; 1.25 μM inhibitor in medium): 26 % of solvent treated control
IL-10 by ELISA, % of solvent treated control ([1]; 5 μM inhibitor in medium): −12 % of solvent treated control
IL-10 by ELISA, % of solvent treated control ([1]; 20 μM inhibitor in medium): −12 % of solvent treated control
IL-1β (Macrophages, LPS), amount of cytokine [2]: 28 % of control treated with solvent alone
IL-4 (Con A, spleen), amount of cytokine [3]: 125 % of control treated with solvent alone
Proliferation (Con A, T cells) [4]: 3 % of control treated with solvent alone
Proliferation (LPS, B cells) [5]: −1 % of control treated with solvent alone

CC[C@H]1OC(=O)[C@H](C)[C@@H](O[C@H]2C[C@@](C)(OC)[C@@H](O)[C@H](C)O2)[C@H](C)[C@@H](O[C@@H]2O[C@H](C)C[C@H](N(C)CCCCCC(=O)OCCSc3nc(-c4ccc(F)cc4)c(-c4ccnc(NC5CCOCC5)c4)[nH]3)[C@H]2O)[C@](C)(O)C[C@@H](C)CN(C)[C@H](C)[C@@H](O)[C@]1(C)O [Compound 43j]
Relative Gene expression, IFNg [6]: 4.2
Relative Gene expression, IL-10 [7]: 3.1
Relative Gene expression, IL-12 [8]: 3.4
Relative Gene expression, IL-23 [9]: 11.0
Relative Gene expression, IL-17 [10]: 14.6
Relative Gene expression, IL-6 [11]: 15.2
Relative Gene expression, TNFa [12]: 13.1
production of IL-10 [13]: inhibits the production of IL-10

Nc1c(C(=O)c2cccc(OCC(O)CO)c2)cnn1-c1ccc(F)cc1 (centres unmarked) [Compound 49, [5-Amino-1-(4-fluoro-phenyl)-1H-pyrazol-4-yl]-[3-(2,3-dihydroxy-propoxy)-phenyl]-methanone]
IL-10 by ELISA, % of solvent treated control ([1]; 1.25 μM inhibitor in medium): 41 % of solvent treated control
IL-10 by ELISA, % of solvent treated control ([1]; 5 μM inhibitor in medium): 42 % of solvent treated control
IL-10 by ELISA, % of solvent treated control ([1]; 20 μM inhibitor in medium): 13 % of solvent treated control
IL-4 (Con A, spleen), amount of cytokine [3]: 188 % of control treated with solvent alone
Relative Gene expression, IFNg [6]: 6.3
Relative Gene expression, IL-10 [7]: 8.9
Relative Gene expression, IL-12 [8]: 28.8
Relative Gene expression, IL-23 [9]: 2.1
Relative Gene expression, IL-17 [10]: 15.2
Relative Gene expression, IL-6 [11]: 18.3
Relative Gene expression, TNFa [12]: 21.4
production of IL-12 [14]: stimulates the production of IL-12

Nc1ccn([C@@H]2O[C@H](CO)[C@@H](O)C2(F)F)c(=O)n1 [Gemcitabine]
survival time relative to vehicle [15]: 1.5 fold

CCc1nc(-c2cccc(C)c2)c(-c2ccnc(NC(=O)c3ccccc3)c2)s1 [TAK-715]
growth rate of the LLC tumour [16]: reduction in the growth rate of the LLC tumour
